The values that follow come from patent US20240124504A1, “AROMATIC HETEROCYCLIC COMPOUND, AND PHARMACEUTICAL COMPOSITION AND APPLICATION THEREOF” (GT APEIRON THERAPEUTICS LIMITED, priority 2020, published 2024).

Like-named read-outs stand apart in the source and are kept apart here. Some results are limits rather than exact numbers.

Holding throughout (format): biochemical
The target in experiment [1] is CDK7/cyclinH/MAT1 complex (Homo sapiens, UniProt P50613). Briefly: In-vitro enzymatic inhibitory activity testing, CDK7 inhibition assay (Caliper EZ Reader II). The settings on record: CDK7/cyclinH/MAT1 6 nM, 180 min at 27° C. Here is the method: (§1) CDK12/CyclinK was diluted in an assay buffer (80 mM MES PH 6.5, 0.01% Tween 20, 50 ug/mL BSA, 10 mM MgCl2) to afford a corresponding enzyme solution with the 2.4 concentration. A compound was dissolved in dimethyl sulfoxide (DMSO) at a concentration of 10 mM. […] 2 ul of a test compound solution was mixed with 5 ul of the enzyme solution; after incubation for 10 min, 5 ul of the polypeptide substrate and ATP mixed solution was added; incubation was carried out for 180 min at 27° C.; and then, the reaction was terminated by adding 4 uL of EDTA with a concentration of 120 mM to each sample. […] A CDK9/cyclinT1 complex (8 nM) and a “5-FAM-CDK9tide” peptide substrate (2 IM, synthetic fluorophore-labeled peptide with the following sequence: 5-FAM-GSRTPMY-NH2, wherein 5-FAM was as defined above and NH2 represented C-terminal amide) were used for a CDK9 inhibition assay. […] A CDK2/cyclinE1 complex (0.5 nM) and “5-FAM-CDK7tide” (2 μM) as defined above were used for CDK2 inhibition assay.
Chain of CDK7/cyclinH/MAT1 complex (P50613 whole entry, species assumed): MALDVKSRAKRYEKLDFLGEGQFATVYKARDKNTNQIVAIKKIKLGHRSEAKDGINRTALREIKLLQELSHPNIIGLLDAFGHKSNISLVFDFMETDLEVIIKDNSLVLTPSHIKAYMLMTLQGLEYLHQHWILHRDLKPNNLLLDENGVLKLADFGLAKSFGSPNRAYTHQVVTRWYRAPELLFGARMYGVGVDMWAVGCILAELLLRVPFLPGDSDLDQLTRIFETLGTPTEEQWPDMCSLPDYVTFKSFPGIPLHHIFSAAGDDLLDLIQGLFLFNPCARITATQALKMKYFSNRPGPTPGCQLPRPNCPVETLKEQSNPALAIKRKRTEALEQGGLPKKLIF
Chain of CDK7/cyclinH/MAT1 complex (P51946 whole entry partner, species assumed): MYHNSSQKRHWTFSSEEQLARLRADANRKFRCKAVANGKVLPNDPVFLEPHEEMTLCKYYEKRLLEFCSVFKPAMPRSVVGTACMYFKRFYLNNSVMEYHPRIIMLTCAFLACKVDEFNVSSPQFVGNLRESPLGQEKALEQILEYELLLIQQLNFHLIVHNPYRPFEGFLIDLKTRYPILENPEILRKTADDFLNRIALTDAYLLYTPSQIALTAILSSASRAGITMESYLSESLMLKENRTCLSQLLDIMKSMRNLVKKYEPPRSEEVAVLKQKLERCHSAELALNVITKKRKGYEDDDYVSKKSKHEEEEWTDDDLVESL
Chain of CDK7/cyclinH/MAT1 complex (P51948 whole entry partner, species assumed): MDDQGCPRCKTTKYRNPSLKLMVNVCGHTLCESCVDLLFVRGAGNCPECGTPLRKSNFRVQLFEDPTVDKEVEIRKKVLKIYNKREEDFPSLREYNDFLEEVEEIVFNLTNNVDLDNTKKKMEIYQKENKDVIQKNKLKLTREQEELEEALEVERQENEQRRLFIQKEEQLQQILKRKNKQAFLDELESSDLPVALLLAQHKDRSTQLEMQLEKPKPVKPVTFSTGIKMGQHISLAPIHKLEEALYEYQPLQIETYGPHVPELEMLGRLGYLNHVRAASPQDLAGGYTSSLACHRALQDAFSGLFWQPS
(§2) A reaction mixture was analyzed on Caliper EZ Reader II by electrophoretic separation of a fluorogenic substrate and a phosphorylated product. Data were calculated by using GraphPad Prism version 6.0, and IC50 values were adjusted and obtained by using a nonlinear regression model of a dose response curve.

Experiment [2] addresses T1, CDK12 (aa686-1082)/cyclinK complex (Homo sapiens, UniProt Q9NYV4).
T1 construct: A CDK12 (aa686-1082)/cyclinK complex (50 nM)
Description: In-vitro enzymatic inhibitory activity testing, CDK12 inhibition assay (Caliper EZ Reader II). As to conditions: 180 min at 27° C. On the procedure:
An assay was carried out in a U-bottom 384-well plate (coming, 4512#), and the reaction temperature was 27° C. CDK7/CyclinH was diluted in an assay buffer (20 mM MES PH 6.75, 0.01% Tween 20, 50 ug/mL BSA, 6 mM MgCl2) to afford a corresponding enzyme solution with the 2.4× concentration. CDK2/CyclinE1 was diluted in an assay buffer (20 mM MES PH 6.75, 0.01% Tween 20, 50 ug/mL BSA, 6 mM MgCl2) to afford a corresponding enzyme solution with the 2.4× concentration. CDK9/CyclinT1 was diluted in an assay buffer (20 mM MES PH 6.75, 0.01% Tween 20, 50 ug/mL BSA, 10 mM MgCl2) to afford a corresponding enzyme solution with the 2.4× concentration. CDK12/CyclinK was diluted in an assay buffer (80 mM MES PH 6.5, 0.01% Tween 20, 50 ug/mL BSA, 10 mM MgCl2) to afford a corresponding enzyme solution with the 2.4 concentration. A compound was dissolved in dimethyl sulfoxide (DMSO) at a concentration of 10 mM. During use, the compound was diluted with DMSO into 10 concentration gradients from 25 nM to 500 uM, and respectively diluted by 8.3 folds in the assay buffer to afford a compound solution with a 6× concentration. A polypeptide substrate and ATP were diluted in the assay buffer to afford a polypeptide substrate and ATP mixed solution with a 2.4× concentration. 2 ul of a test compound solution was mixed with 5 ul of the enzyme solution; after incubation for 10 min, 5 ul of the polypeptide substrate and ATP mixed solution was added; incubation was carried out for 180 min at 27° C.; and then, the reaction was terminated by adding 4 uL of EDTA with a concentration of 120 mM to each sample. […]. Specifically, a CDK7/cyclinH/MAT1 complex (6 nM) and a “5-FAMCD K 7 tide” peptide substrate (2 μM, synthetic fluorophore-labeled peptide with the following sequence: 5-FAM-[…], wherein “5-FAM” refers to 5-carboxyfluorescein) were used for a CDK7 inhibition assay. A CDK9/cyclinT1 complex (8 nM) and a “5-FAM-CDK9tide” peptide substrate (2 IM, synthetic fluorophore-labeled peptide with the following sequence: 5-FAM-GSRTPMY-NH2, wherein 5-FAM was as defined above and NH2 represented C-terminal amide) were used for a CDK9 inhibition assay. A CDK12 (aa686-1082)/cyclinK complex (50 nM) and “5-FAM-CDK9tide” (2 μM) as defined above were used for a CDK12 inhibition assay. A CDK2/cyclinE1 complex (0.5 nM) and “5-FAM-CDK7tide” (2 μM) as defined above were used for CDK2 inhibition assay.
as §2

In another experiment the target is CDK2/cyclinE1 complex (Homo sapiens, UniProt P24941). Description: In-vitro enzymatic inhibitory activity testing, CDK2 inhibition assay (Caliper EZ Reader II). As to conditions: CDK2/cyclinE1 0.5 nM, 180 min at 27° C. Here is the method:
CDK12/CyclinK was diluted in an assay buffer (80 mM MES PH 6.5, 0.01% Tween 20, 50 ug/mL BSA, 10 mM MgCl2) to afford a corresponding enzyme solution with the 2.4 concentration. […] A CDK9/cyclinT1 complex (8 nM) and a “5-FAM-CDK9tide” peptide substrate (2 IM, synthetic fluorophore-labeled peptide with the following sequence: 5-FAM-GSRTPMY-NH2, wherein 5-FAM was as defined above and NH2 represented C-terminal amide) were used for a CDK9 inhibition assay. […] A CDK2/cyclinE1 complex (0.5 nM) and “5-FAM-CDK7tide” (2 μM) as defined above were used for CDK2 inhibition assay.
as §2

A further experiment has as its target CDK9/cyclinT1 complex (Homo sapiens, UniProt P50750). Description: In-vitro enzymatic inhibitory activity testing, CDK9 inhibition assay (Caliper EZ Reader II). As to conditions: CDK9/cyclinT1 8 nM, 180 min at 27° C. On the procedure:
as §1, §2

Where [3] appears, read: CDK12/cyclinK 50 nM, read-out: CDK12 IC50.

Chain of CDK9/cyclinT1 complex (P50750 whole entry, species assumed): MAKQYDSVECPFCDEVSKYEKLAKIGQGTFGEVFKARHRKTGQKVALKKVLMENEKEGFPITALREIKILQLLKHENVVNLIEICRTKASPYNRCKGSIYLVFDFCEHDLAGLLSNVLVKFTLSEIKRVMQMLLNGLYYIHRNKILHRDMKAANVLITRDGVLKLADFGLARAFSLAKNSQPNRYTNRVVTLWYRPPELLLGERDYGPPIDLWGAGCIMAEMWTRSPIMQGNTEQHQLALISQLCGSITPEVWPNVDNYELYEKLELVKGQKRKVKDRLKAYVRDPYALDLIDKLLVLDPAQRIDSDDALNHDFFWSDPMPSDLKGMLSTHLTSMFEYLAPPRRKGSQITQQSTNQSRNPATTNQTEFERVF
Chain of CDK9/cyclinT1 complex (O60563 whole entry partner, species assumed): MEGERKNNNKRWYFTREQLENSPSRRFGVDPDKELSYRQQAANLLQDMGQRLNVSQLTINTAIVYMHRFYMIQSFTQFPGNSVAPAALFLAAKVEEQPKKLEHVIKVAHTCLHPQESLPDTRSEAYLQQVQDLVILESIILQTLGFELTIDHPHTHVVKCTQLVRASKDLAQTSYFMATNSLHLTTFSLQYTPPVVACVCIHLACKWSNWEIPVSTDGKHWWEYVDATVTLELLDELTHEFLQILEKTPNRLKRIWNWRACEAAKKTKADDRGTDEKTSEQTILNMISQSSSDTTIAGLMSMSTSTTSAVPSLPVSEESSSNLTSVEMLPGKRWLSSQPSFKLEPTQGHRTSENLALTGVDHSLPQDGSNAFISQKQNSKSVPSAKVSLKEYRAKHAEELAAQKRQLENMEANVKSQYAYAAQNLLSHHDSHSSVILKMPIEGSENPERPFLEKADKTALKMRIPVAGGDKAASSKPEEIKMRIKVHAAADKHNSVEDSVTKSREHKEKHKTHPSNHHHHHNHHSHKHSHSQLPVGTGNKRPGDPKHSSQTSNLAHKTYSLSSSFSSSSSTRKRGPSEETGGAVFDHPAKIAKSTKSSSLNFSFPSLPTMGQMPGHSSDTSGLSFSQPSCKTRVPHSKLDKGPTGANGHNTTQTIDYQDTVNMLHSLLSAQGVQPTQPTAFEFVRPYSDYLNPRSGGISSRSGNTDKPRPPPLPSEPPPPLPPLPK
T1 sequence (Q9NYV4 686-1082, species assumed): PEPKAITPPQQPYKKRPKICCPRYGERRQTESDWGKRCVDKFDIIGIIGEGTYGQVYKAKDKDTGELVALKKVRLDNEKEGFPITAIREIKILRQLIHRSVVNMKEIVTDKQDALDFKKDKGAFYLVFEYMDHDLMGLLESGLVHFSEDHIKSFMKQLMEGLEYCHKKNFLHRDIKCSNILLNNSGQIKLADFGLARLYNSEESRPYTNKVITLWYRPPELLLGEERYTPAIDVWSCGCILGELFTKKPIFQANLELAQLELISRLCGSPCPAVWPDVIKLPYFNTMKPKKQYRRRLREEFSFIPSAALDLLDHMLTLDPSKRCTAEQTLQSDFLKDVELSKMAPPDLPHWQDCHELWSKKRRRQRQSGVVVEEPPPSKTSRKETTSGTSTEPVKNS
T1 sequence (O75909 whole entry partner, species assumed, the tested form may be a part): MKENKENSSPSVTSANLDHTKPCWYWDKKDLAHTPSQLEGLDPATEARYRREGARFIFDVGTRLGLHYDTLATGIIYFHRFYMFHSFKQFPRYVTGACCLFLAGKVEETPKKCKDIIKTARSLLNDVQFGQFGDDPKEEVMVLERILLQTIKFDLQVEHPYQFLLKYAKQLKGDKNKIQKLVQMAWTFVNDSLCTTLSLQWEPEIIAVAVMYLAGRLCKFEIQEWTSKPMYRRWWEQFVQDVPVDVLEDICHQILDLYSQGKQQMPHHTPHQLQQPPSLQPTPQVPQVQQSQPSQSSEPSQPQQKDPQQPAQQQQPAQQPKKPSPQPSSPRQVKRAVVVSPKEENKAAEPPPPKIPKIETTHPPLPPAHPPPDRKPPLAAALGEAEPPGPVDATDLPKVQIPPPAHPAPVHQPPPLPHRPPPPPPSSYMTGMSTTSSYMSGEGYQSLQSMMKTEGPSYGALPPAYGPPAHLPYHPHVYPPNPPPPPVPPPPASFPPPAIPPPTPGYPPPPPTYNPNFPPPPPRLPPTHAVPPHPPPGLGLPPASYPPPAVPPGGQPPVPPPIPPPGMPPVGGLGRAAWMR

What is called IC50 is the point on the concentration scale where inhibition reaches its midpoint. In turn, `CP(C)(=O)c1cccc2c(-c3nc(NC4CC(F)(F)CC4O)ncc3C(F)(F)F)c[nH]c12` (single isomer, unassigned) [Compound 190] yielded an IC50 in experiment [1] of 20 to 200 nM. With `CP(C)(=O)c1cccc2c(-c3nc(NCC4(O)CCCCCC4)ncc3C(F)(F)F)c[nH]c12` [Compound 152], the IC50 in experiment [1] lay in the range of 20 to 200 nM. `CN[C@@H]1C[C@H]2O[C@@](C)([C@@H]1OC)n1c3ccccc3c3c4c(c5c6ccccc6n2c5c31)C(=O)NC4` [Staurosporine, staurosporine, reference compound]: in experiment [2] (CDK12 IC50, CDK12/cyclinK 50 nM), the IC50 lay in the range of 200 to 5000 nM. With `C[C@@H](CO)Nc1ncc(C(N)=O)c(-c2c[nH]c3c(P(C)(C)=O)cccc23)n1` [Compound 180, (S)-4-(7-(dimethylphosphoryl)-1H-indole-3-yl)-2-((1-hydroxypropan-2-yl)amino)pyrimidine-5-carboxamide], the IC50 in experiment [1] is 5000 to 50000 nM; at CDK2/cyclinE1 complex, more than 50000 nM; against CDK9/cyclinT1 complex it was more than 50000 nM; in experiment [2] (setting [3]), more than 50000 nM. Consider `FC(F)(F)c1cnc(N[C@@H]2CCC[C@@H]3CNC[C@@H]32)nc1-c1c[nH]c2nc(N3CCOCC3)ccc12` [Compound 45, (3aR,4R,7aS)-N-(4-(6-morpholinyl-1H-pyrrolo[2,3-b]pyridin-3-yl)-5-(trifluoromethyl)pyrimidin-2-yl)octahydro-1H-isoindole-4-amine], for which the IC50 in experiment [1] lay in the range of 20 to 200 nM; at CDK2/cyclinE1 complex, 5000 to 50000 nM; at CDK9/cyclinT1 complex, 5000 to 50000 nM; in experiment [2] (setting [3]), 5000 to 50000 nM.

For the molecule `CN(C)C[C@@H]1CCCC1Nc1ncc(C(F)(F)F)c(-c2c[nH]c3c(P(C)(C)=O)cccc23)n1` (stereo in doubt) [Compound 133, (3-(2-((cis-2-((dimethylamino)methyl)cyclopentyl)amino)-5-(trifluoromethyl)pyrimidin-4-yl)-1H-indole-7-yl)dimethylphosphine oxide], in experiment [1], the IC50 was less than 20 nM. Regarding `C[C@@H](CO)Nc1nccc(-c2c[nH]c3c(P(C)(C)=O)cccc23)n1` [Compound 186], the IC50 in experiment [1] was 5000 to 50000 nM; at CDK2/cyclinE1 complex it was more than 50000 nM; against CDK9/cyclinT1 complex, more than 50000 nM; in experiment [2] (setting [3]) it was more than 50000 nM.

Consider `C[C@@H](CO)Nc1ncc(F)c(-c2c[nH]c3c(P(C)(C)=O)cccc23)n1` [Compound 157, (S)-(3-(5-fluoro-2-((1-hydroxypropan-2-yl)amino)pyrimidin-4-yl)-1H-indole-7-yl)dimethylphosphine oxide], for which the IC50 was 200 to 5000 nM in experiment [1], 200 to 5000 nM on CDK2/cyclinE1 complex, more than 50000 nM against CDK9/cyclinT1 complex and more than 50000 nM in experiment [2] (setting [3]).

The molecule `C[C@@H](CO)Nc1ncc(C(F)(F)F)c(-c2c[nH]c3nc(C4CCCCO4)ccc23)n1` (single isomer, unassigned) [Compound 184] returned an IC50 in experiment [1] of 20 to 200 nM. `CP(C)(=O)c1cccc2c(-c3nc(NC4CC(F)(F)CC4O)ncc3C(F)(F)F)c[nH]c12` (single isomer, unassigned) [Compound 192]: the values for the IC50 (in experiment [1]; at CDK2/cyclinE1 complex) were 20 to 200 nM and 5000 to 50000 nM, respectively. Regarding `CP(C)(=O)c1cccc2c(-c3nc(N[C@@H]4CC(F)(F)C[C@@H]4O)ncc3C(F)(F)F)c[nH]c12` (relative stereo) [Compound 187, (3-(2-(cis-4,4-difluoro-2-hydroxycyclopentylamino)-5-(trifluoromethyl)pyrimidin-4-yl)-1H-indole-7-yl)dimethylphosphine oxide], in experiment [1], the IC50 was 20 to 200 nM. The same measure, in the same setting: in the case of `CP(C)(=O)c1cccc2c(-c3nc(NC4CCC[C@@H]4CN)ncc3C(F)(F)F)c[nH]c12` (stereo in doubt) [Compound 132, (3-(2-((trans-2-(aminomethyl)cyclopentyl)amino)-5-(trifluoromethyl)pyrimidin-4-yl)-1H-indole-7-yl)dimethylphosphine oxide] it was less than 20 nM; in that of `CCCC[C@H](CO)Nc1ncc(C(F)(F)F)c(-c2c[nH]c3c(P(C)(C)=O)cccc23)n1` [Compound 170, (R)-(3-(2-((1-hydroxyhexan-2-yl)amino)-5-(trifluoromethyl)pyrimidin-4-yl)-1H-indole-7-yl)dimethylphosphine oxide], 20 to 200 nM.

Molecule `C[C@@H](CO)Nc1ncc(C(F)(F)F)c(-c2n[nH]c3c(P(C)(C)=O)cccc23)n1` [Compound 193, (S)-(3-(2-((1-hydroxypropan-2-yl)amino)-5-(trifluoromethyl)pyrimidin-4-yl)-1H-indazol-7-yl)dimethylphosphine oxide] registered an IC50 in experiment [1] of 20 to 200 nM. Still for that read-out and setting: to `CP(C)(=O)c1cccc2c(-c3nc(N[C@@H]4CC(F)(F)C[C@H]4O)ncc3C(F)(F)F)c[nH]c12` (relative stereo) [Compound 188, (3-(2-(trans-4,4-difluoro-2-hydroxycyclopentylamino)-5-(trifluoromethyl)pyrimidin-4-yl)-1H-indole-7-yl)dimethylphosphine oxide] belongs less than 20 nM. On the same count and under the same terms, in the case of `CN(C)C[C@H]1CCCC1Nc1ncc(C(F)(F)F)c(-c2c[nH]c3c(P(C)(C)=O)cccc23)n1` (stereo in doubt) [Compound 134, (3-(2-((trans-2-((dimethylamino)methyl)cyclopentyl)amino)-5-(trifluoromethyl)pyrimidin-4-yl)-1H-indole-7-yl)dimethylphosphine oxide] it was less than 20 nM. On the same count and under the same terms, in the case of `CP(C)(=O)c1cccc2c(-c3nc(N[C@H](CO)C4CCCCC4)ncc3C(F)(F)F)c[nH]c12` [Compound 169, (S)-(3-(2-((1-cyclohexyl-2-hydroxyethyl)amino)-5-(trifluoromethyl)pyrimidin-4-yl)-1H-indole-7-yl)dimethylphosphine oxide] it was 20 to 200 nM; in that of `CP(C)(=O)c1cccc2c(-c3nc(NC4CCC[C@H]4CN)ncc3C(F)(F)F)c[nH]c12` (stereo in doubt) [Compound 131, (3-(2-((cis-2-(aminomethyl)cyclopentyl)amino)-5-(trifluoromethyl)pyrimidin-4-yl)-1H-indole-7-yl)dimethylphosphine oxide], less than 20 nM; in that of `CP(C)(=O)c1cccc2c(-c3nc(NC4CC(F)(F)CC4O)ncc3C(F)(F)F)c[nH]c12` (single isomer, unassigned) [Compound 189], 20 to 200 nM. In the case of `C[C@@H](CO)Nc1ncc(C(F)(F)F)c(-c2c[nH]c3nc(C4CCCCO4)ccc23)n1` (single isomer, unassigned) [Compound 183], in experiment [1], the IC50 fell in the range of 20 to 200 nM.
